ChEMBL document CHEMBL6115051, “Design of Novel Mercapto-3-phenylpropanoyl Dipeptides as Dual Angiotensin-Converting Enzyme C-Domain-Selective/Neprilysin Inhibitors” (J Med Chem, 2025)
pIC50: −log10 of the molar value.

Columns and labels:
[1] = biological target: T1, Angiotensin-converting enzyme (Homo sapiens, UniProt P12821); test: Inhibition of human glycosylated N-terminal catalytic ACE domain using Cbz-Phe-His-Leu substrate by fluorogenic end point activity assay
[2] = biological target: T1, Angiotensin-converting enzyme; test: Inhibition of human glycosylated C-terminal catalytic ACE domain using Cbz-Phe-His-Leu substrate by fluorogenic end point activity assay
Neprilysin = Neprilysin (Homo sapiens, UniProt P08473); test: Inhibition of human NEP ectodomain using MCA-RPPGFSAFK-(Dnp)-OH peptide as substrate by continuous activity assay
Homo sapiens = species: Homo sapiens; test: Selectivity factor, ratio of IC50 for human glycosylated nACE to IC50 for human glycosylated cACE

T1 sequence (P12821 whole entry, the tested form may be a part): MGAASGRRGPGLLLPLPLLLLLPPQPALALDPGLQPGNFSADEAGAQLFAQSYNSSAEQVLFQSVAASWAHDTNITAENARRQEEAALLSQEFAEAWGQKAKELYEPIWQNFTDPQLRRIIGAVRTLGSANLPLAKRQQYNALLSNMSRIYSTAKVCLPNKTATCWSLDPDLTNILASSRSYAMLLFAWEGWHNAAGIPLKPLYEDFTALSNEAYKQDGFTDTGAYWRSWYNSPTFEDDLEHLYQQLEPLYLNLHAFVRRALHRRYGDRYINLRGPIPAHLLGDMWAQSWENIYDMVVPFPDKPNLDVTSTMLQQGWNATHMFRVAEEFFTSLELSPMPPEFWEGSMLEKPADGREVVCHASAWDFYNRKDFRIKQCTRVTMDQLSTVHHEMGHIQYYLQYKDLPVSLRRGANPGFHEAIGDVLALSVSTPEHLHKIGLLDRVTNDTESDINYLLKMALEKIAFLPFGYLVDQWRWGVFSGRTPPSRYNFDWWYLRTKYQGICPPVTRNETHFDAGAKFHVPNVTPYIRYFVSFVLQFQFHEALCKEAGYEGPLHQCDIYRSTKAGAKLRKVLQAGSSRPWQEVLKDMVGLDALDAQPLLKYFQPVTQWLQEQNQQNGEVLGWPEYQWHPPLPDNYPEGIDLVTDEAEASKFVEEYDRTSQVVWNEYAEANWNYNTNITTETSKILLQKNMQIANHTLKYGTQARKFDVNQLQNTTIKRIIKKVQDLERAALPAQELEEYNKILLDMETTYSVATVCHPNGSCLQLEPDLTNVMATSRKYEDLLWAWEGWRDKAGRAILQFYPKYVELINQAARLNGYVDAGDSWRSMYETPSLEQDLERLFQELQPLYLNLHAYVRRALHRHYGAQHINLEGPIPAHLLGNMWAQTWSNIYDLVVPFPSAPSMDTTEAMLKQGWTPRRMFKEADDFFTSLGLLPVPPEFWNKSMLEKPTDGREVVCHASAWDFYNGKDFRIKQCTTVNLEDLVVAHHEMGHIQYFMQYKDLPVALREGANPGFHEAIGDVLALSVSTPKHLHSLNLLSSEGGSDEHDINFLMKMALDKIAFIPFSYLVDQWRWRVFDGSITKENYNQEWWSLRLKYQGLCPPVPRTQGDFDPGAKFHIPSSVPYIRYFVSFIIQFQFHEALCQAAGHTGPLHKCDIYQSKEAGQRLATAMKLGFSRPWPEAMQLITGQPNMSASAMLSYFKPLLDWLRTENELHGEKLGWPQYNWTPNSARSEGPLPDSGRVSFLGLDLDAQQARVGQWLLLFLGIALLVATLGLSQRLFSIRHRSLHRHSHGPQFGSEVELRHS
Sequence of Neprilysin (P08473 whole entry, the tested form may be a part): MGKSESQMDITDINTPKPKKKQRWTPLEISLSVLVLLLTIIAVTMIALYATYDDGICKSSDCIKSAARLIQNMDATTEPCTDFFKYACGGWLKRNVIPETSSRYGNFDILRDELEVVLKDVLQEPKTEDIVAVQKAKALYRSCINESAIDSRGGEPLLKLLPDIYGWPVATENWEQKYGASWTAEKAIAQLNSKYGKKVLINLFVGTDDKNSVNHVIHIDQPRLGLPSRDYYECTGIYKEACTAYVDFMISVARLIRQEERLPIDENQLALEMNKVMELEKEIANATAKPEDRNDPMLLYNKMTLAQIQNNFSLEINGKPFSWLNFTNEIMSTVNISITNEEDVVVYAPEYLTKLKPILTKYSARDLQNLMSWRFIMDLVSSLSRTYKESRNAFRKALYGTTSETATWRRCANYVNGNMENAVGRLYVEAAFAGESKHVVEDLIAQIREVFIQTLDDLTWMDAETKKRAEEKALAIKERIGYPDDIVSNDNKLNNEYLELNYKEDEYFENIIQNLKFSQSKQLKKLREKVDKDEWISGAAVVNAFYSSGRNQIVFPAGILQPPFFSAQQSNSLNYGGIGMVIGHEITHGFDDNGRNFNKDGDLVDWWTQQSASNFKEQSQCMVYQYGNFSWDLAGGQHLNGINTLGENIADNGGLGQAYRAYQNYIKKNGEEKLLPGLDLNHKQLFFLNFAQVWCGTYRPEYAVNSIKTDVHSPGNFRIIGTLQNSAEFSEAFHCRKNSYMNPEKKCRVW

Compound	pIC50 [1]	pIC50 [2]	pIC50 (Neprilysin)	Ratio IC50 (Homo sapiens)
Cc1ccc([C@H]2CC[C@@H](C(=O)O)N2C(=O)CN[C@@H](CCc2ccccc2)C(=O)O)cc1	5.22	5.39	< 4.00	1.5
O=C(NCC(=O)N1[C@@H](c2cccc(O)c2)CC[C@H]1C(=O)O)[C@@H](S)Cc1ccc(O)cc1		8.05		
NCCCC[C@H](N[C@@H](CCc1ccccc1)C(=O)O)C(=O)N[C@@H](Cc1c[nH]c2ccccc12)C(=O)O	5.51	7.10	< 3.60	39
NCCCC[C@H](NC(=O)[C@@H](S)Cc1ccccc1)C(=O)N[C@@H](Cc1c[nH]c2ccccc12)C(=O)O		8.15		
